Measured values reported in patent publication US4595688A, “Hexahydropyrrolo[2,1-a]isoquinoline derivatives and antidepressant use thereof” (priority 1984, dated 1986).
Read-outs that look alike come from different tables or passages of the source.

Tested on: depressant effects of tetrabenazine (TBZ)
Test: tetrabenazine (TBZ) antagonism assay in mice: exploratory activity (EA) and reversal of ptosis (Pt)
Assay type: in vivo
Settings: for ED50: Mus musculus, ip; for percent inhibition at a certain dose, EA (exploratory activity): TBZ 32 mg/kg i.p.
Experimental: The utility of the novel compounds of this patent is based on a standard test for antidepressant agents involving antagonism of the depressant effects of tetrabenazine (TBZ). This is the "classical" tetrabenazine antagonism assay described in U.S. Pat. No. 3,787,577. In this test, mice are injected with a test compound 30 minutes prior to the injection of 32 mg/kg i.p. of TBZ, a drug which decreases normal exploratory activity and induces ptosis. After 30 minutes, the mice are tested for two parameters: the presence of normal exploratory activity (EA) and reversal of ptosis (Pt). A control group of mice is given only 32 mg/kg i.p. of TBZ. The biological activity of the novel compounds of this invention may be understood by some representative, nonlimiting examples, presented in Tables I and II.
Tables I lists the compounds tested by a compound number, structural formula, HX or acid addition salt form in which the compound was tested, test data, and internal code number (McN No.). Table II names the various Table I compounds.
*ED50 given in mg/kg for each parameter (except for percent
inhibition at a certain dose in mg/kg, given for four examples: XLIV, XLV

[1] = mice, i.p., compound 30 minutes prior to 32 mg/kg i.p. TBZ, reversal of ptosis, read-out: TBZ ED50, Pt (reversal of ptosis)
[2] = mice, i.p., compound 30 minutes prior to 32 mg/kg i.p. TBZ, normal exploratory activity
[3] = mice, i.p., compound 30 minutes prior to 32 mg/kg i.p. TBZ, reversal of ptosis
[4] = mice, i.p., compound 30 minutes prior to 32 mg/kg i.p. TBZ, normal exploratory activity, read-out: TBZ ED50, EA (exploratory activity)
[5] = read-out: TBZ ED50, EA (exploratory activity)
[6] = read-out: TBZ ED50, Pt (reversal of ptosis)

Oc1cccc([C@@H]2CN3CCC[C@H]3c3ccccc32)c1 (relative stereo) [XLIV, 3-(1,2,3,5,6,10bα-Hexahydropyrrolo[2,1-a]isoquinolin-6α-yl)phenol]
ED50 [1]: 3.1 mg/kg | percent inhibition at a certain dose, EA (exploratory activity) (mice, i.p., @ 30 mg/kg): 37%

OC1(c2ccccc2)CN2CCCC2c2ccccc21 (single isomer, unassigned) [XLIII, 1,2,3,5,6,10b-Hexahydro-6-phenylpyrrolo[2,1-a]isoquinolin-6-ol]
TBZ ED50, EA (exploratory activity) [2]: 33 mg/kg | TBZ ED50, Pt (reversal of ptosis) [3]: 5.0 mg/kg

COc1ccc([C@@H]2CN3CCC[C@@H]3c3ccccc32)cc1 (relative stereo) [XXXIII, 1,2,3,5,6,10bβ-Hexahydro-6α-(4-methoxyphenyl)pyrrolo[2,1-a]isoquinoline]
ED50 [4]: 7 mg/kg | ED50 [1]: 0.19 mg/kg

Clc1ccc([C@@H]2CN3CCC[C@@H]3c3cc(Cl)ccc32)cc1 (relative stereo) [XXXII, [6α,10bβ]-9-Chloro-6-(4-chlorophenyl)-1,2,3,5,6,10b-hexahydropyrrolo[2,1-a]isoquinoline]
ED50 [4]: 37 mg/kg | ED50 [1]: 4 mg/kg

C[C@@]1(c2ccccc2)CN2CCC[C@@H]2c2ccccc21 (relative stereo) [XXV, 1,2,3,5,6,10bβ-Hexahydro-6-methyl-6α-phenylpyrrolo[2,1-a]isoquinoline]
ED50 [4]: 27 mg/kg | ED50 [1]: 0.7 mg/kg

FC(F)(F)c1cccc([C@@H]2CN3CCC[C@@H]3c3ccccc32)c1 (relative stereo) [XLIX, 1,2,3,5,6,10bβ-Hexahydro-6α-[(3-trifluoromethyl)phenyl]-pyrrolo[2,1-a]isoquinoline]
ED50 [4]: 1.2 mg/kg | ED50 [1]: 0.43 mg/kg

COc1cccc2c1[C@H](c1ccccc1)CN1CCC[C@H]21 (relative stereo) [XLVII, 1,2,3,5,6,10bβ-Hexahydro-7-methoxy-6α-phenylpyrrolo[2,1-a]isoquinoline]
ED50 [5]: 2.8 mg/kg | ED50 [6]: ~6.5 mg/kg

COc1ccc([C@@H]2CN3CCC[C@@H]3c3ccccc32)cc1OC (relative stereo) [XLV, 1,2,3,5,6,10bβ-Hexahydro-6α-(3,4-dimethoxyphenyl)pyrrolo[2,1-a]isoquinoline]
ED50 [1]: 0.14 mg/kg | percent inhibition at a certain dose, EA (exploratory activity) (mice, i.p., @ 30 mg/kg): 33%

COc1cc2c(cc1OC)[C@H]1CCCN1C[C@H]2c1ccccc1 (relative stereo) [XXVII, [6α,10bβ]-1,2,3,5,6,10b-Hexahydro-8,9-dimethoxy-6-phenylpyrrolo[2,1-a]isoquinoline]
ED50 [4]: 17 mg/kg | ED50 [1]: 7.2 mg/kg

COc1ccc2c(c1)[C@@H]1CCCN1C[C@H]2c1ccccc1 (relative stereo) [XXXIX, 1,2,3,5,6,10bα-Hexahydro-9-methoxy-6α-phenylpyrrolo[2,1-a]isoquionline]
ED50 [4]: ~40 mg/kg | ED50 [1]: 8 mg/kg

OC1(c2ccccc2)CN2CCCC2c2ccccc21 (single isomer, unassigned) [XXXIV, 1,2,3,5,6,10b-Hexahydro-6-phenylpyrrolo[2,1-a]isoquinolin-6-ol]
TBZ ED50, EA (exploratory activity) [2]: 8.4 mg/kg | TBZ ED50, Pt (reversal of ptosis) [3]: 1.6 mg/kg

COc1ccc([C@@H]2CN3CCC[C@H]3c3ccccc32)cc1 (relative stereo) [XXXI, 1,2,3,5,6,10bα-Hexahydro-6α-(4-methoxyphenyl)pyrrolo[2,1-a]isoquinoline]
ED50 [4]: ~60 mg/kg | ED50 [1]: 3 mg/kg

Oc1cccc([C@@H]2CN3CCC[C@@H]3c3ccccc32)c1 (relative stereo) [Compound XLI, 3-(1,2,3,5,6,10bβ-Hexahydropyrrolo[2,1-a]isoquinolin-6α-yl)phenol]
ED50 [4]: > 10 mg/kg | ED50 [1]: 0.11 mg/kg

O=[N+]([O-])c1ccc([C@@H]2CN3CCC[C@@H]3c3ccccc32)cc1 (relative stereo) [XXXVIII, 1,2,3,5,6,10bβ-hexahydro-6α-(4-nitrophenyl)-pyrrolo[2,1-a]isoquinoline]
ED50 [4]: 0.51 mg/kg | ED50 [1]: 0.15 mg/kg

c1ccc2c(c1)[C@H](C1CCCCC1)CN1CCC[C@H]21 (relative stereo) [XXVIII, [6α,10β]-6-Cyclohexyl-1,2,3,5,6,10b-hexahydropyrrolo[2,1-a]isoquinoline]
ED50 [4]: 6.4 mg/kg | ED50 [1]: 1.9 mg/kg

Oc1cc2c(cc1O)[C@H]1CCCN1C[C@H]2c1ccccc1 (relative stereo) [XXVI, [6α,10bβ]-1,2,3,5,6,10b-Hexahydro-8,9-dihydroxy-6-phenylpyrrolo[2,1-a]isoquinoline]
ED50 [4]: 0.87 mg/kg | ED50 [1]: 0.33 mg/kg

Oc1ccc([C@@H]2CN3CCC[C@@H]3c3ccccc32)cc1O (relative stereo) [XXXV, 4-(1,2,3,5,6,10bβ-Hexahydropyrrolo[2,1-a]isoguinolin-6α-yl)benzene-1,2-diol]
ED50 [4]: 1.4 mg/kg | ED50 [1]: 0.13 mg/kg

Oc1ccc([C@@H]2CN3CCC[C@H]3c3ccccc32)cc1O (relative stereo) [XXXVII, 4-(1,2,3,5,6,10bα-Hexahydropyrrolo[2,1-a]isoquinolin-6a-yl)-1,2-benzenediol]
ED50 [4]: 30 mg/kg | ED50 [1]: 1.8 mg/kg

Clc1ccc([C@@H]2CN3CCC[C@H]3c3cc(Cl)ccc32)cc1 (relative stereo) [Compound XLII, [6α,10bα]-9-Chloro-6-(4-chlorophenyl)-1,2,3,5,6,10b-hexahydropyrrolo[2,1-a]isoquinoline]
ED50 [4]: 100 mg/kg | ED50 [1]: 37 mg/kg

C[C@]12CCCN1C[C@@H](c1ccc(F)cc1)c1ccc(F)cc12 (relative stereo) [L, 9-Fluoro-6α-(4-fluorophenyl)-1,2,3,5,6,10b-hexahydro-10bβ-methylpyrrolo[2,1-a]isoquinoline]
ED50 [4]: 6.1 mg/kg | ED50 [1]: 5.6 mg/kg

C[C@]12CCCN1C[C@@H](c1ccccc1)c1ccccc12 (relative stereo) [IVb, [6α,10bβ]-1,2,3,5,6,10b-Hexahydro-10b-methyl-6-phenylpyrrolo[2,1-a]isoquinoline]
ED50 [4]: 9.2 mg/kg | ED50 [1]: 3.8 mg/kg

Oc1ccc(C2CN3CCCC3c3ccccc32)cc1 (stereo not drawn) [XXXVI, 4-(1,2,3,5,6,10bα-Hexahydropyrrolo[2,1-a]isoquinolin-6α-yl)phenol]
TBZ ED50, EA (exploratory activity) [2]: ca. 14 mg/kg | TBZ ED50, Pt (reversal of ptosis) [3]: 10 mg/kg

COc1cccc([C@@H]2CN3CCC[C@@H]3c3ccccc32)c1 (relative stereo) [Compound XL, 1,2,3,5,6,10bβ-Hexahydro-6α-(3-methoxyphenyl)pyrrolo[2,1-a]isoquinoline]
ED50 [4]: ~0.17 mg/kg | ED50 [1]: ~0.07 mg/kg

c1ccc([C@H]2Cc3ccccc3[C@@H]3CCCN23)cc1 (relative stereo) [LII, 1,2,3,5,6,10bα-Hexahydro-5α-phenylpyrrolo[2,1-a]isoquinoline]
ED50 [5]: ~30 mg/kg | ED50 [6]: 32 mg/kg

c1ccc([C@@H]2CN3CCC[C@@H]3c3ccccc32)cc1 (relative stereo) [Xb, [6α,10bβ]-1,2,3,5,6,10b-Hexahydro-6-phenyl-pyrrolo[2,1-a]isoquinoline]
ED50 [4]: 0.34 mg/kg | ED50 [1]: 0.07 mg/kg

FC1(c2ccccc2)CN2CCCC2c2ccccc21 (stereo not drawn) [LIII, 6α-Fluoro-1,2,3,5,6,10bα-hexahydro-6-phenylpyrrolo[2,1-a]isoquinoline]
ED50 [6]: 1.2 mg/kg | percent inhibition at a certain dose, EA (exploratory activity) (mice, i.p., @ 40 mg/kg): 60%

C[C@@]1(c2ccccc2)CN2CCC[C@H]2c2ccccc21 (relative stereo) [XLVI, 1,2,3,5,6,10bα-Hexahydro-6-methyl-6α-phenylpyrrolo[2,1-a]isoquinoline]
ED50 [4]: 22.5 mg/kg | ED50 [1]: 16 mg/kg

Clc1ccc([C@@H]2CN3CCC[C@H]3c3ccccc32)cc1 (relative stereo) [XXX, 6α-(4-Chlorophenyl)-1,2,3,5,6,10bα-hexahydropyrrolo[2,1-a]isoquinoline]
ED50 [5]: 8.1 mg/kg | ED50 [6]: 5.4 mg/kg

Nc1ccc([C@@H]2CN3CCC[C@H]3c3ccccc32)cc1 (relative stereo) [XLVIII, 4-(1,2,3,5,6,10bα-Hexahydropyrrolo[2,1-a]isoquinoline-6α-yl)benzenamine]
ED50 [4]: 1.4 mg/kg | ED50 [1]: 0.41 mg/kg

Clc1ccc([C@@H]2CN3CCC[C@H]3c3ccccc32)cc1Cl (relative stereo) [XXIV, 6α-(3,4-Dichlorophenyl)-1,2,3,5,6,10bα-hexahydropyrrolo[2,1-a]isoquinoline]
ED50 [5]: ~40 mg/kg | ED50 [6]: 8 mg/kg

Clc1ccccc1[C@@H]1CN2CCC[C@@H]2c2ccccc21 (relative stereo) [LI, [6α,10bβ]-6-(2-chlorophenyl)-1,2,3,5,6,10b-hexahydropyrrolo[2,1-a]isoquinoline]
ED50 [1]: 0.2 mg/kg | percent inhibition at a certain dose, EA (exploratory activity) (mice, i.p., @ 60 mg/kg): 37%

Clc1ccc([C@@H]2CN3CCC[C@@H]3c3ccccc32)cc1 (relative stereo) [XXIX, [6α,10bβ]-6-(4-Chlorophenyl)-1,2,3,5,6,10b-hexahydropyrrolo[2,1-a]isoquinoline]
ED50 [5]: 0.27 mg/kg | ED50 [6]: 0.13 mg/kg
